# What was measured:
# Experiment in all cases: Test F preemergence test
# prickly sida = format: in vivo, Sida spinosa; conditions: scale 0 to 100
# In short: (§1)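 Compound in a non-phytotoxic solvent blend with surfactant is applied preemergence to planted seeds or postemergence to sugarcane plants. Plants and controls stay in the greenhouse 14 to 21 days before visual comparison.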
# mustard = format: in vivo, Brassica nigra; conditions: scale 0 to 100
# In short: as §1
# dallisgrass = format: in vivo, Paspalum dilatatum; conditions: scale 0 to 100
# In short: as §1
# goosegrass = format: in vivo, Eleusine indica; conditions: scale 0 to 100
# In short: as §1
# kochia = format: in vivo, Kochia scoparia; conditions: scale 0 to 100
# In short: as §1
# barnyardgrass = format: in vivo, Echinochloa crus-galli
# In short: as §1
# Surinam grass = format: in vivo, Brachiaria decumbens; conditions: scale 0 to 100
# In short: as §1
# naked crabgrass = format: in vivo, Digitaria nuda; conditions: scale 0 to 100
# In short: as §1
# johnsongrass = format: in vivo, Sorghum halepense; conditions: scale 0 to 100
# In short: as §1
# Virginia dayflower = format: in vivo, Commelina virginica; conditions: scale 0 to 100
# In short: as §1
# quackgrass = format: in vivo, Elytrigia repens; conditions: scale 0 to 100
# In short: as §1
# itchgrass = format: in vivo, Rottboellia cochinchinensis; conditions: scale 0 to 100
# In short: as §1
# large crabgrass = format: in vivo, Digitaria sanguinalis; conditions: scale 0 to 100
# In short: as §1
# bermudagrass = format: in vivo, Cynodon dactylon; conditions: scale 0 to 100
# In short: as §1
# guineagrass = format: in vivo, Panicum maximum; conditions: scale 0 to 100
# In short: as §1
# common groundsel = format: in vivo, Senecio vulgaris; conditions: scale 0 to 100
# In short: as §1
# common ragweed = format: in vivo, Ambrosia elation; conditions: scale 0 to 100
# In short: as §1
# broadleaf signalgrass = format: in vivo, Brachiaria platyphylla; conditions: scale 0 to 100
# In short: as §1
# common purslane = format: in vivo, Portulaca oleracea; conditions: scale 0 to 100
# In short: as §1
# pitted morningglory = format: in vivo, Ipomoea lacunosa; conditions: scale 0 to 100
# In short: as §1
# Italian ryegrass = format: in vivo, Lolium multiflorum; conditions: scale 0 to 100
# In short: as §1
compound,measurement,setting,value
CC(Oc1c(C[S+]([O-])c2cccc[n+]2[O-])c(C(F)(F)F)nn1C)C(F)(F)F (centres unmarked) [Compound 77],"Plant response rating, Prickly Sida","prickly sida; 16 g ai/ha, preemergence",20
same,Prickly Sida plant response rating,"prickly sida; 62 g ai/ha, Preemergence",80
same,Prickly Sida plant response rating,"prickly sida; 125 g ai/ha, preemergence",80
same,"Plant response rating, Prickly Sida","prickly sida; Preemergence, 31 g ai/ha",30
same,"Plant response rating, Black Mustard","mustard; 16 g ai/ha, preemergence",0
same,Black Mustard plant response rating,"mustard; 62 g ai/ha, Preemergence",65
same,Black Mustard plant response rating,"mustard; 125 g ai/ha, preemergence",100
same,"Plant response rating, Black Mustard","mustard; Preemergence, 31 g ai/ha",20
same,"Plant response rating, Dallisgrass","dallisgrass; 16 g ai/ha, preemergence",0
same,Dallisgrass plant response rating,"dallisgrass; 62 g ai/ha, Preemergence",98
same,Dallisgrass plant response rating,"dallisgrass; 125 g ai/ha, preemergence",100
same,"Plant response rating, Dallisgrass","dallisgrass; Preemergence, 31 g ai/ha",30
same,"Plant response rating, Goosegrass","goosegrass; 16 g ai/ha, preemergence",20
same,Goosegrass plant response rating,"goosegrass; 62 g ai/ha, Preemergence",100
same,Goosegrass plant response rating,"goosegrass; 125 g ai/ha, preemergence",100
same,"Plant response rating, Goosegrass","goosegrass; Preemergence, 31 g ai/ha",85
same,"Plant response rating, Kochia","kochia; 16 g ai/ha, preemergence",0
same,Kochia plant response rating,"kochia; 62 g ai/ha, Preemergence",75
same,Kochia plant response rating,"kochia; 125 g ai/ha, preemergence",100
same,"Plant response rating, Kochia","kochia; Preemergence, 31 g ai/ha",0
same,"Plant response rating, Barnyardgrass","barnyardgrass; 16 g ai/ha, preemergence, scale 0 to 100 (0 no effect, 100 complete control)",65
same,Barnyardgrass plant response rating,"barnyardgrass; 62 g ai/ha, Preemergence, scale 0 to 100",100
same,Barnyardgrass plant response rating,"barnyardgrass; 125 g ai/ha, preemergence, scale 0 to 100",100
same,"Plant response rating, Barnyardgrass","barnyardgrass; Preemergence, 31 g ai/ha, scale 0 to 100",90
same,"Plant response rating, Surinam Grass","Surinam grass; 16 g ai/ha, preemergence",0
same,Surinam Grass plant response rating,"Surinam grass; 125 g ai/ha, preemergence",98
same,"Plant response rating, Surinam Grass","Surinam grass; Preemergence, 62 g ai/ha",95
same,"Plant response rating, Surinam Grass","Surinam grass; Preemergence, 31 g ai/ha",70
same,"Plant response rating, Crabgrass, Naked","naked crabgrass; 16 g ai/ha, preemergence",0
same,"Crabgrass, Naked plant response rating","naked crabgrass; 62 g ai/ha, Preemergence",90
same,"Crabgrass, Naked plant response rating","naked crabgrass; 125 g ai/ha, preemergence",100
same,"Plant response rating, Crabgrass, Naked","naked crabgrass; Preemergence, 31 g ai/ha",75
same,"Plant response rating, Johnsongrass","johnsongrass; 16 g ai/ha, preemergence",0
same,Johnsongrass plant response rating,"johnsongrass; 62 g ai/ha, Preemergence",85
same,Johnsongrass plant response rating,"johnsongrass; 125 g ai/ha, preemergence",100
same,"Plant response rating, Johnsongrass","johnsongrass; Preemergence, 31 g ai/ha",75
same,"Plant response rating, Dayflower","Virginia dayflower; 16 g ai/ha, preemergence",0
same,Dayflower plant response rating,"Virginia dayflower; 62 g ai/ha, Preemergence",0
same,Dayflower plant response rating,"Virginia dayflower; 125 g ai/ha, preemergence",100
same,"Plant response rating, Dayflower","Virginia dayflower; Preemergence, 31 g ai/ha",0
same,"Plant response rating, Quackgrass","quackgrass; 16 g ai/ha, preemergence",0
same,Quackgrass plant response rating,"quackgrass; 62 g ai/ha, Preemergence",40
same,Quackgrass plant response rating,"quackgrass; 125 g ai/ha, preemergence",80
same,"Plant response rating, Quackgrass","quackgrass; Preemergence, 31 g ai/ha",0
same,"Plant response rating, Itchgrass","itchgrass; 16 g ai/ha, preemergence",0
same,Itchgrass plant response rating,"itchgrass; 62 g ai/ha, Preemergence",65
same,Itchgrass plant response rating,"itchgrass; 125 g ai/ha, preemergence",95
same,"Plant response rating, Itchgrass","itchgrass; Preemergence, 31 g ai/ha",35
same,"Plant response rating, Crabgrass, Large","large crabgrass; 16 g ai/ha, preemergence",0
same,"Crabgrass, Large plant response rating","large crabgrass; 62 g ai/ha, Preemergence",95
same,"Crabgrass, Large plant response rating","large crabgrass; 125 g ai/ha, preemergence",100
same,"Plant response rating, Crabgrass, Large","large crabgrass; Preemergence, 31 g ai/ha",85
same,"Plant response rating, Bermudagrass","bermudagrass; 16 g ai/ha, preemergence",0
same,Bermudagrass plant response rating,"bermudagrass; 62 g ai/ha, Preemergence",80
same,Bermudagrass plant response rating,"bermudagrass; 125 g ai/ha, preemergence",95
same,"Plant response rating, Bermudagrass","bermudagrass; Preemergence, 31 g ai/ha",30
same,"Plant response rating, Guineagrass","guineagrass; 16 g ai/ha, preemergence",15
same,Guineagrass plant response rating,"guineagrass; 62 g ai/ha, Preemergence",100
same,Guineagrass plant response rating,"guineagrass; 125 g ai/ha, preemergence",100
same,"Plant response rating, Guineagrass","guineagrass; Preemergence, 31 g ai/ha",80
same,"Plant response rating, Groundsel","common groundsel; 16 g ai/ha, preemergence",0
same,Groundsel plant response rating,"common groundsel; 62 g ai/ha, Preemergence",0
same,Groundsel plant response rating,"common groundsel; 125 g ai/ha, preemergence",0
same,"Plant response rating, Groundsel","common groundsel; Preemergence, 31 g ai/ha",0
same,"Plant response rating, Ragweed","common ragweed; 16 g ai/ha, preemergence",0
same,Ragweed plant response rating,"common ragweed; 125 g ai/ha, preemergence",98
same,"Plant response rating, Ragweed","common ragweed; Preemergence, 62 g ai/ha",65
same,"Plant response rating, Signalgrass","broadleaf signalgrass; 16 g ai/ha, preemergence",0
same,Signalgrass plant response rating,"broadleaf signalgrass; 125 g ai/ha, preemergence",90
same,"Plant response rating, Signalgrass","broadleaf signalgrass; Preemergence, 62 g ai/ha",75
same,"Plant response rating, Signalgrass","broadleaf signalgrass; Preemergence, 31 g ai/ha",25
same,"Plant response rating, Purslane","common purslane; 16 g ai/ha, preemergence",0
same,Purslane plant response rating,"common purslane; 62 g ai/ha, Preemergence",20
same,Purslane plant response rating,"common purslane; 125 g ai/ha, preemergence",65
same,"Plant response rating, Purslane","common purslane; Preemergence, 31 g ai/ha",0
same,"Plant response rating, Morningglory","pitted morningglory; 16 g ai/ha, preemergence",0
same,Morningglory plant response rating,"pitted morningglory; 62 g ai/ha, Preemergence",60
same,Morningglory plant response rating,"pitted morningglory; 125 g ai/ha, preemergence",90
same,"Plant response rating, Morningglory","pitted morningglory; Preemergence, 31 g ai/ha",35
same,"Plant response rating, Ryegrass, Italian","Italian ryegrass; 16 g ai/ha, preemergence",0
same,"Ryegrass, Italian plant response rating","Italian ryegrass; 125 g ai/ha, preemergence",100
same,"Plant response rating, Ryegrass, Italian","Italian ryegrass; Preemergence, 62 g ai/ha",90
same,"Plant response rating, Ryegrass, Italian","Italian ryegrass; Preemergence, 31 g ai/ha",40

# Reference: US20100298141A1, “SUBSTITUTED PYRIDINE N-OXIDE HERBICIDES” (E. I. DU PONT DE NEMOURS AND COMPANY, priority 2007, published 2010)
